We go through two molecules from publication PMC11536340, “A Dynamic Loop in Halohydrin Dehalogenase HheG Regulates Activity and Enantioselectivity in Epoxide Ring Opening” (ACS Catalysis, 2024).

The assay concerns the target T1, HheG (Ilumatobacter coccineus, UniProt Z9P531QQL2, M65F, form not given).
T1 construct: homotetramer
T1 sequence (Z9P531QQL2 21-282 M65F): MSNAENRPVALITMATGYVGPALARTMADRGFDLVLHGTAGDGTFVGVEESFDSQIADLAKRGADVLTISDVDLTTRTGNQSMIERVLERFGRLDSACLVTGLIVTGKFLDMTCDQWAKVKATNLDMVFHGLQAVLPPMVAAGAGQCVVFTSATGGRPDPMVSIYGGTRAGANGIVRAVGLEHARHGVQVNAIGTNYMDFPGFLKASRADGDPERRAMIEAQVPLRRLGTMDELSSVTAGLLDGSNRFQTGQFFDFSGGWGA
The assay can be described thus: BTB (bromothymol blue) pH-indicator assay, initial rates, Hill fit. The assay is classed as biochemical. Conditions: 2 mM MOPS pH 7.0. The source says:
BTB (bromothymol blue) pH-indicator assay, initial rates, Hill fit on HheG

Read-outs that look alike come from different tables or passages of the source.

Regarding `[N-]=[N+]=[N-]` [azide], the Km (cyclohexene oxide fixed at 100 mM, Hill coefficient n 3.94 ± 0.29, read-out: azide / K50) stood at 10.1 ± 0.21 mM.
On to `C1CCC2OC2C1` (centres unmarked) [compound 1, cyclohexene oxide], for which the Km (azide fixed at 60 mM, Hill coefficient n 3.33 ± 0.27, read-out: cyclohexene oxide / K50) was 28 ± 0.64 mM.
